ChEMBL document CHEMBL1149922, “Novel tryptophan dioxygenase inhibitors and combined tryptophan dioxygenase/5-HT reuptake inhibitors” (Bioorg Med Chem Lett, 1996)
pIC50, pKi: −log10 of the molar value.

What was measured:
Rattus norvegicus = species: Rattus norvegicus; assay: Inhibition of 5-HT reuptake in rat […] was measured; assay type: functional, organism-based
[1] = target: Tryptophan 2,3-dioxygenase (Rattus norvegicus, UniProt P21643); assay: Compound was tested for inhibition of Tryptophan dioxygenase (TDO) from rat liver
Sequence of Tryptophan 2,3-dioxygenase (P21643 whole entry): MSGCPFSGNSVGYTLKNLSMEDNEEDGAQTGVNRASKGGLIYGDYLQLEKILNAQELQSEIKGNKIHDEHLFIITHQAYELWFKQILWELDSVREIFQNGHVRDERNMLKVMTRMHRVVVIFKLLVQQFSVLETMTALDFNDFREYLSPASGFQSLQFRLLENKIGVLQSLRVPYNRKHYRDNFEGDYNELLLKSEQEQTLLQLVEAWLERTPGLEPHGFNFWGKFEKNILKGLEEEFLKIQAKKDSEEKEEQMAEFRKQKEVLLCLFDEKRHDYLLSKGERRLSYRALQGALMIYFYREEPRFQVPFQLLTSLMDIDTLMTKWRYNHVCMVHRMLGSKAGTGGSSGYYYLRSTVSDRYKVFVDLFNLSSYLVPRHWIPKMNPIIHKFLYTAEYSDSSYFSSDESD

SMILES | pIC50 (Rattus norvegicus) | pKi [1]
Fc1ccc2[nH]cc(/C=C/c3cccnc3)c2c1 |  | 7.30
C(=C\c1c[nH]c2ccccc12)/c1ccccn1 |  | 7.00
C(=C\c1c[nH]c2ccccc12)/c1cccnc1 |  | 7.40

The next lines start with the values.

pIC50 (Rattus norvegicus) | pKi [1] | SMILES
5.82 | 7.52 | C(=C\c1c[nH]c2ccccc12)/c1ccncc1
 | 7.40 | Fc1ccc2[nH]cc(/C=C/c3ccncc3)c2c1
 | 7.52 | Fc1ccc2c(/C=C/c3cccnc3)c[nH]c2c1
6.05 | 7.52 | Fc1ccc2c(/C=C/c3ccncc3)c[nH]c2c1
